According to US20260274829A1, “NEW E3 UBIQUITIN LIGASE LIGAND, PROTEIN DEGRADATION AGENT AND USE THEREOF” (GLUETACS THERAPEUTICS (SHANGHAI) CO., LTD., priority 2023, published 2026):

Target: T1, human Cereblon WT GST-tagged protein (Homo sapiens, UniProt Q96SW2)
T1 construct: purchased CISBIO 64BDCRBNPEH
Assay: CRBN binding, HTRF CEREBLON BINDING kit
Settings: CRBN binding, HTRF CEREBLON BINDING kit
How it was run: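 Binding inhibition was calculated from the 665/620 nm emission ratios, with blank wells and solvent wells as references. Test compounds competed for GST-tagged human Cereblon WT against a Thalidomide-Re reagent paired with GST Eu antibody. Plates were sealed and held at room temperature for 3 hours before the HTRF read.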

T1 sequence (Q96SW2 whole entry): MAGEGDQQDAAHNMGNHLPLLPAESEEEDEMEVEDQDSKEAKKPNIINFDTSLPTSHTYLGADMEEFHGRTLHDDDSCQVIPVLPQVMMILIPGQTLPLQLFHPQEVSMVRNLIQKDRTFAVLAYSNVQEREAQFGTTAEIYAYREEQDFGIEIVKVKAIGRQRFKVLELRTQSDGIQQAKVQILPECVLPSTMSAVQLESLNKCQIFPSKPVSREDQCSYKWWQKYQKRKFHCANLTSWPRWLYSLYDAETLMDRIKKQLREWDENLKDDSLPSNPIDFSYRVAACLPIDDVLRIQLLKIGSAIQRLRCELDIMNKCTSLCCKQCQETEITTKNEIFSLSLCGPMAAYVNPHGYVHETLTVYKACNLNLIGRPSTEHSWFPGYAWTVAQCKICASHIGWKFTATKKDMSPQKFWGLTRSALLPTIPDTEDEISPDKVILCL

SMILES	IC50 [µM]
Cc1ccc(-c2c(C)noc2C)cc1N(CC1CCN(Cc2ccc(N3CCC(=O)NC3=O)c(F)c2)CC1)c1ccc(C2(C#N)CC2)cc1 [GT-04843, 1-(4-((5-(3,5-dimethylisoxazol-4-yl)-2-methylphenyl)((1-(4-(2,4-dioxotetrahydropyrimidin-1(2H)-yl)-3-fluorobenzyl)piperidin-4-yl)methyl)amino)phenyl)cyclopropane-1-carbonitrile]	1 to 1.9
Cn1cc(-c2cc(S(C)(=O)=O)ccc2OCc2ccc(C3CCC(=O)NC3=O)cc2)c2cc[nH]c2c1=O (stereo not shown) [GT-06415, 3-(4-((2-(6-methyl-7-oxo-6,7-dihydro-1H-pyrrolo[2,3-c]pyridin-4-yl)-4-(methylsulfonyl)phenoxy)methyl)phenyl)piperidine-2,6-dione]	< 0.5
O=C1CCN(c2ccc(CN3CCN(C4CCN(c5ccc(-c6cc(F)c7c(c6)C(=O)N(C(C(=O)Nc6nccs6)c6ncn8c6CCC8)C7)cc5)CC4)CC3)cc2)C(=O)N1 (stereo not shown) [GT-06244, 2-(6,7-dihydro-5H-pyrrolo[1,2-c]imidazol-1-yl)-2-(6-(4-(4-(4-(4-(2,4-dioxotetrahydropyrimidin-1(2H)-yl)benzyl)piperazin-1-yl)piperidin-1-yl)phenyl)-4-fluoro-1-oxoisoindolin-2-yl)-N-(thiazol-2-yl)acetamide]	0.5 to 1
CN(Cc1cccc(NC2CCC(=O)NC2=O)c1)C1CCN(c2ccc(-c3cc(F)c4c(c3)C(=O)N(C(C(=O)Nc3nccs3)c3ncn5c3CCC5)C4)cc2)CC1 (stereo not shown) [GT-05284, 2-(6,7-dihydro-5H-pyrrolo[1,2-c]imidazol-1-yl)-2-(6-(4-(4-((3-((2,6-dioxopiperidin-3-yl)amino)benzyl)(methyl)amino)piperidin-1-yl)phenyl)-4-fluoro-1-oxoisoindolin-2-yl)-N-(thiazol-2-yl)acetamide]	< 0.5
COc1cc(N2CCN(Cc3cccc(N4CCC(=O)NC4=O)c3)CC2)ccc1Nc1ncc(Cl)c(Nc2ccccc2P(C)(C)=O)n1 [GT-07348, 1-(3-((4-(4-((5-chloro-4-((2-(dimethylphosphoryl)phenyl)amino)pyrimidin-2-yl)amino)-3-methoxyphenyl)piperazin-1-yl)methyl)phenyl)dihydropyrimidine-2,4(1H,3H)-dione]	1 to 1.9
O=C1CCN(c2ccc(CN3CCN(C4CCN(c5ccc(Nc6ncc7nc(Nc8ccccc8)n(C8CCCC8)c7n6)cc5)CC4)CC3)nc2)C(=O)N1 [GT-05941, 1-(6-((4-(1-(4-((9-cyclopentyl-8-(phenylamino)-9H-purin-2-yl)amino)phenyl)piperidin-4-yl)piperazin-1-yl)methyl)pyridin-3-yl)dihydropyrimidine-2,4(1H,3H)-dione]	1 to 1.9
Cc1nc2c(F)cc(-c3nc(Nc4ccc(CN5CCN(Cc6ccc(N7CCC(=O)NC7=O)cc6)CC5)cn4)ncc3F)cc2n1C(C)C [GT-06665, 1-(4-((4-((6-((5-fluoro-4-(4-fluoro-1-isopropyl-2-methyl-1H-benzo[d]imidazol-6-yl)pyrimidin-2-yl)amino)pyridin-3-yl)methyl)piperazin-1-yl)methyl)phenyl)dihydropyrimidine-2,4(1H,3H)-dione]	1 to 1.9
Cc1nc2c(F)cc(-c3nc(Nc4ccc(CN5CCN(Cc6cccc(N7CCC(=O)NC7=O)c6)CC5)cn4)ncc3F)cc2n1C(C)C [GT-06666, 1-(3-((4-((6-((5-fluoro-4-(4-fluoro-1-isopropyl-2-methyl-1H-benzo[d]imidazol-6-yl)pyrimidin-2-yl)amino)pyridin-3-yl)methyl)piperazin-1-yl)methyl)phenyl)dihydropyrimidine-2,4(1H,3H)-dione]	< 0.5
Nc1nc(Nc2ccc(S(=O)(=O)N3CCN(Cc4ccc(C5CCC(=O)NC5=O)cc4)CC3)cc2)nn1C(=O)c1c(F)cccc1F (stereo not shown) [GT-06750, 3-(4-((4-((4-((5-amino-1-(2,6-difluorobenzoyl)-1H-1,2,4-triazol-3-yl)amino)phenyl)sulfonyl)piperazin-1-yl)methyl)phenyl)piperidine-2,6-dione]	0.5 to 1
CN1CCN([C@@H]2CCCN(c3cnc(C(N)=O)c(Nc4ccc(C5CCN(Cc6ccc(N7CCC(=O)NC7=O)cc6F)CC5)cc4)n3)C2)C1=O [GT-04803, (R)-3-((4-(1-(4-(2,4-dioxotetrahydropyrimidin-1(2H)-yl)-2-fluorobenzyl)piperidin-4-yl)phenyl)amino)-5-(3-(3-methyl-2-oxoimidazolidin-1-yl)piperidin-1-yl)pyrazine-2-carboxamide]	0.5 to 1
COc1ccc2cn(C3CCN(Cc4ccc(C5CCC(=O)NC5=O)cc4)CC3)nc2c1NC(=O)c1cccc(C(F)(F)F)c1 (stereo not shown) [GT-04813, N-(2-(1-(4-(2,6-dioxopiperidin-3-yl)benzyl)piperidin-4-yl)-6-methoxy-2H-indazol-7-yl)-3-(trifluoromethyl)benzamide]	1 to 1.9
COc1cc(N2CCC(N3CCN(Cc4ccc(N5CCC(=O)NC5=O)cn4)CC3)CC2)c(C)cc1Nc1ncc(Br)c(Nc2ccc3nccnc3c2P(C)(C)=O)n1 [GT-06003, 1-(6-((4-(1-(4-((5-bromo-4-((5-(dimethylphosphoryl)quinoxalin-6-yl)amino)pyrimidin-2-yl)amino)-5-methoxy-2-methylphenyl)piperidin-4-yl)piperazin-1-yl)methyl)pyridin-3-yl)dihydropyrimidine-2,4(1H,3H)-dione]	1 to 1.9
CC(C)n1nc(N2CCC(N3CCN(Cc4cccc(N5CCC(=O)NC5=O)c4)CC3)CC2)c2cnc(Nc3ccnc(-c4cnn(S(=O)(=O)C5CC5)c4)n3)cc21 [GT-06080, 1-(3-((4-(1-(6-((2-(1-(cyclopropylsulfonyl)-1H-pyrazol-4-yl)pyrimidin-4-yl)amino)-1-isopropyl-1H-pyrazolo[4,3-c]pyridin-3-yl)piperidin-4-yl)piperazin-1-yl)methyl)phenyl)dihydropyrimidine-2,4(1H,3H)-dione]	0.5 to 1
COc1cc2nn(C3CCN(Cc4ccc(N5CCC(=O)NC5=O)cc4F)CC3)cc2cc1NC(=O)c1cccc(C(F)(F)F)c1 [GT-04753, N-(2-(1-(4-(2,4-dioxotetrahydropyrimidin-1(2H)-yl)-2-fluorobenzyl)piperidin-4-yl)-6-methoxy-2H-indazol-5-yl)-3-(trifluoromethyl)benzamide]	1 to 1.9
CN(C)C(=O)c1cc2cnc(Nc3ccc(N4CCC(N(C)Cc5ccc(C6CCC(=O)NC6=O)cc5)CC4)cn3)nc2n1C1CCCC1 (stereo not shown) [GT-06490, 7-cyclopentyl-2-((5-(4-((4-(2,6-dioxopiperidin-3-yl)benzyl)(methyl)amino)piperidin-1-yl)pyridin-2-yl)amino)-N,N-dimethyl-7H-pyrrolo[2,3-d]pyrimidine-6-carboxamide]	0.5 to 1
NC(=O)c1ncc(N2CCCCC2)nc1Nc1ccc(C2CCN(Cc3ccc(C4CCC(=O)NC4=O)cc3)CC2)cc1 (stereo not shown) [GT-04785, 3-((4-(1-(4-(2,6-dioxopiperidin-3-yl)benzyl)piperidin-4-yl)phenyl)amino)-5-(piperidin-1-yl)pyrazine-2-carboxamide]	0.5 to 1
O=C1CCC(c2ccc(CN3CCN(C4CCN(c5ccc(-c6cc(F)c7c(c6)C(=O)N(C(C(=O)Nc6nccs6)c6ncn8c6CCC8)C7)cc5)CC4(F)F)CC3)cc2)C(=O)N1 (stereo not shown) [GT-06317, 2-(6,7-dihydro-5H-pyrrolo[1,2-c]imidazol-1-yl)-2-(6-(4-(4-(4-(4-(2,6-dioxopiperidin-3-yl)benzyl)piperazin-1-yl)-3,3-difluoropiperidin-1-yl)phenyl)-4-fluoro-1-oxoisoindolin-2-yl)-N-(thiazol-2-yl)acetamide]	1 to 1.9
O=C1CCC(Nc2cccc(CN3C[C@H]4C[C@@H]3CN4c3ccc(-c4cc(F)c5c(c4)C(=O)N(C(C(=O)Nc4nccs4)c4ncn6c4CCC6)C5)cc3)c2)C(=O)N1 (stereo partly drawn) [GT-06179, 2-(6,7-dihydro-5H-pyrrolo[1,2-c]imidazol-1-yl)-2-(6-(4-((1R,4R)-5-(3-((2,6-dioxopiperidin-3-yl)amino)benzyl)-2,5-diazabicyclo[2.2.1]heptan-2-yl)phenyl)-4-fluoro-1-oxoisoindolin-2-yl)-N-(thiazol-2-yl)acetamide]	0.5 to 1
CC(=O)c1c(C)c2cnc(Nc3ccc(N4CCN(Cc5ccc(C6CCC(=O)NC6=O)cc5)CC4)cn3)nc2n(C2CCCC2)c1=O (stereo not shown) [GT-06575, 3-(4-((4-(6-((6-acetyl-8-cyclopentyl-5-methyl-7-oxo-7,8-dihydropyrido[2,3-d]pyrimidin-2-yl)amino)pyridin-3-yl)piperazin-1-yl)methyl)phenyl)piperidine-2,6-dione]	0.5 to 1
O=C1CCN(c2ccc(CN3C[C@@H]4C[C@H]3CN4c3ccc(-c4cc(F)c5c(c4)C(=O)N(C(C(=O)Nc4nccs4)c4ncn6c4CCC6)C5)cc3)cc2)C(=O)N1 (stereo partly drawn) [GT-05116, 2-(6,7-dihydro-5H-pyrrolo[1,2-c]imidazol-1-yl)-2-(6-(4-((1S,4S)-5-(4-(2,4-dioxotetrahydropyrimidin-1(2H)-yl)benzyl)-2,5-diazabicyclo[2.2.1]heptan-2-yl)phenyl)-4-fluoro-1-oxoisoindolin-2-yl)-N-(thiazol-2-yl)acetamide]	0.5 to 1
O=C1CCN(c2ccc(CN3CCN(C4CCN(c5ccc(-c6cc(F)c7c(c6)C(=O)N(C(C(=O)Nc6nccs6)c6ncn8c6CCC8)C7)cc5)CC4(F)F)CC3)cc2)C(=O)N1 (stereo not shown) [GT-06318, 2-(6,7-dihydro-5H-pyrrolo[1,2-c]imidazol-1-yl)-2-(6-(4-(4-(4-(4-(2,4-dioxotetrahydropyrimidin-1(2H)-yl)benzyl)piperazin-1-yl)-3,3-difluoropiperidin-1-yl)phenyl)-4-fluoro-1-oxoisoindolin-2-yl)-N-(thiazol-2-yl)acetamide]	1 to 1.9
O=C1CCC(c2ccc(CN3C[C@H]4C[C@@H]3CN4c3ccc(-c4cc(F)c5c(c4)C(=O)N(C(C(=O)Nc4nccs4)c4ncn6c4CCC6)C5)cc3)cc2)C(=O)N1 (stereo partly drawn) [GT-06176, 2-(6,7-dihydro-5H-pyrrolo[1,2-c]imidazol-1-yl)-2-(6-(4-((1R,4R)-5-(4-(2,6-dioxopiperidin-3-yl)benzyl)-2,5-diazabicyclo[2.2.1]heptan-2-yl)phenyl)-4-fluoro-1-oxoisoindolin-2-yl)-N-(thiazol-2-yl)acetamide]	0.5 to 1
